Measured values published in ChEMBL document CHEMBL1201862, “PubChem BioAssay data set” (2004).
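Protocol summary: plate cells (96-well), add compound at 5 concentrations, incubate 48 h, interpolate endpoints linearly. At the GI50, growth is halved.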 Activity calls are given as the source filed them. Rule as the data show it: active = GI50 up to about 1.1 µM and inactive = higher.

Assays:
Assay in all cases: NCI-60 cell line screen, 48 h
ACHN = tested on: ACHN
COLO 205 = tested on: COLO 205
HCC 2998 = tested on: HCC 2998
HCT-15 = tested on: HCT-15
HL-60 = tested on: HL-60
HOP-62 = tested on: HOP-62
K562 = tested on: K562
LOX IMVI = tested on: LOX IMVI
M14 = tested on: M14
OVCAR-4 = tested on: OVCAR-4
OVCAR-8 = tested on: OVCAR-8
RPMI-8226 = tested on: RPMI-8226
SF-268 = tested on: SF-268
SF-295 = tested on: SF-295
SF-539 = tested on: SF-539
SK-OV-3 = tested on: SK-OV-3
SW-620 = tested on: SW-620
UACC-62 = tested on: UACC-62
Hs-578T = tested on: Hs-578T

SMILES | GI50 (ACHN) | GI50 (COLO 205) | GI50 (HCC 2998) | GI50 (HCT-15) [µM] | GI50 (HL-60) | GI50 (HOP-62) | GI50 (K562) | GI50 (LOX IMVI) | GI50 (M14) | GI50 (OVCAR-4) | GI50 (OVCAR-8) | GI50 (RPMI-8226) | GI50 (SF-268) | GI50 (SF-295) | GI50 (SF-539) | GI50 (SK-OV-3) | GI50 (SW-620) | GI50 (UACC-62) | GI50 (Hs-578T)
CCOC(=O)N1C2C=C(C)C(ON2C(=O)c2ccccc2)C2C(C)C(=O)N21 (centres undefined) | > 100 µM (inactive) | > 100 µM (inactive) | > 100 µM (inactive) | > 100 | > 100 µM (inactive) | > 100 µM (inactive) | > 100 µM (inactive) | > 100 µM (inactive) | > 100 µM (inactive) | > 100 µM (inactive) | > 100 µM (inactive) | > 100 µM (inactive) | > 100 µM (inactive) | > 100 µM (inactive) | > 100 µM (inactive) | > 100 µM (inactive) | > 100 µM (inactive) | > 100 µM (inactive) | –
COc1ccc(O)c(C#N)c1C#N | > 100 µM (inactive) | > 100 µM (inactive) | > 100 µM (inactive) | > 100 | > 100 µM (inactive) | > 100 µM (inactive) | > 100 µM (inactive) | < 0.01 µM (active) | > 100 µM (inactive) | > 100 µM (inactive) | > 100 µM (inactive) | > 100 µM (inactive) | > 100 µM (inactive) | > 100 µM (inactive) | > 100 µM (inactive) | > 100 µM (inactive) | > 100 µM (inactive) | > 100 µM (inactive) | –
O=[N+]([O-])c1cc([N+](=O)[O-])c(C(Cl)C(Cl)c2ccccc2)cc1C(Cl)C(Cl)c1ccccc1 (centres undefined) | 1.77 µM (inactive) | 1.73 µM (inactive) | 1.76 µM (inactive) | 1.48 | 7.29 µM (inactive) | 3.66 µM (inactive) | 1.69 µM (inactive) | 1.64 µM (inactive) | 1.49 µM (inactive) | 2.64 µM (inactive) | 1.87 µM (inactive) | 1.07 µM (active) | 1.77 µM (inactive) | 2.15 µM (inactive) | 1.8 µM (inactive) | 6.34 µM (inactive) | 1.61 µM (inactive) | 1.84 µM (inactive) | –
O=C(CCn1[nH]c(=O)c(Cl)c(Cl)c1=O)NNC(=O)C[n+]1ccccc1 | > 100 µM (inactive) | > 100 µM (inactive) | > 100 µM (inactive) | > 100 | > 100 µM (inactive) | > 100 µM (inactive) | > 100 µM (inactive) | > 100 µM (inactive) | > 100 µM (inactive) | > 100 µM (inactive) | > 100 µM (inactive) | > 100 µM (inactive) | > 100 µM (inactive) | > 100 µM (inactive) | > 100 µM (inactive) | > 100 µM (inactive) | > 100 µM (inactive) | > 100 µM (inactive) | –
CC(C)(C)C#C[P+](c1ccccc1)(c1ccccc1)c1ccccc1 | 1.39 µM (inactive) | 0.17 µM (active) | 0.293 µM (active) | 0.655 | 0.057 µM (active) | 0.277 µM (active) | 0.0498 µM (active) | 0.328 µM (active) | 0.225 µM (active) | 0.211 µM (active) | 0.185 µM (active) | 0.0377 µM (active) | 0.203 µM (active) | 0.292 µM (active) | 0.373 µM (active) | 0.655 µM (active) | 0.152 µM (active) | 0.297 µM (active) | –
CN(C)CCNC(=O)Cc1ccccc1Nc1c(Cl)cccc1Cl | 19 µM (inactive) | 16.4 µM (inactive) | 11.5 µM (inactive) | 15.6 | 14.7 µM (inactive) | 15 µM (inactive) | 15.3 µM (inactive) | 13.6 µM (inactive) | 17.3 µM (inactive) | 20.1 µM (inactive) | 18.9 µM (inactive) | 16.6 µM (inactive) | 18.2 µM (inactive) | 16 µM (inactive) | 16.5 µM (inactive) | 17.6 µM (inactive) | 18.2 µM (inactive) | 18.3 µM (inactive) | –
O=C(CSCC(=O)N/N=C/c1cc(I)cc(I)c1O)N/N=C/c1cc(I)cc(I)c1O | 11.9 µM (inactive) | 23.1 µM (inactive) | 12.8 µM (inactive) | 17.9 | 6.18 µM (inactive) | 9.27 µM (inactive) | 11.1 µM (inactive) | – | 17.8 µM (inactive) | 47 µM (inactive) | 6.34 µM (inactive) | 26.5 µM (inactive) | 4.34 µM (inactive) | 13.6 µM (inactive) | 7.57 µM (inactive) | 10.8 µM (inactive) | 13.6 µM (inactive) | 12.8 µM (inactive) | 6.78 µM (inactive)
CC1CC(C)C(C(O)CC2CC(=O)N(c3ccccc3)C(=O)C2)C(O)C1 (centres undefined) | > 100 µM (inactive) | > 100 µM (inactive) | > 100 µM (inactive) | – | > 100 µM (inactive) | > 100 µM (inactive) | > 100 µM (inactive) | > 100 µM (inactive) | > 100 µM (inactive) | > 100 µM (inactive) | > 100 µM (inactive) | > 100 µM (inactive) | > 100 µM (inactive) | > 100 µM (inactive) | > 100 µM (inactive) | > 100 µM (inactive) | > 100 µM (inactive) | > 100 µM (inactive) | –
CN(C)c1cccc2c(S(=O)(=O)NCCN)cccc12 [DANSYL ETHYLENEDIAMINE] | > 100 µM (inactive) | > 100 µM (inactive) | 39.5 µM (inactive) | > 100 | 9.91 µM (inactive) | > 100 µM (inactive) | > 100 µM (inactive) | > 100 µM (inactive) | > 100 µM (inactive) | > 100 µM (inactive) | – | – | > 100 µM (inactive) | > 100 µM (inactive) | > 100 µM (inactive) | > 100 µM (inactive) | > 100 µM (inactive) | > 100 µM (inactive) | > 100 µM (inactive)
CCCCCCCCCCCCCCCCCC(=O)OCC(COC(=O)CCCN)OC(=O)CCCN (centres undefined) | > 100 µM (inactive) | 16.5 µM (inactive) | 18.5 µM (inactive) | 23.7 | 54.2 µM (inactive) | 17.4 µM (inactive) | 35.6 µM (inactive) | 18.5 µM (inactive) | 16.9 µM (inactive) | 22 µM (inactive) | 18.5 µM (inactive) | – | 23.1 µM (inactive) | 19.4 µM (inactive) | 18.2 µM (inactive) | 18.3 µM (inactive) | 19.6 µM (inactive) | 18.2 µM (inactive) | 19.2 µM (inactive)
COc1ccc2nc3c(c(NCCCN(C)C)c2c1)CCCC3 | 20.4 µM (inactive) | 10.8 µM (inactive) | 8.81 µM (inactive) | 16.3 | 7.67 µM (inactive) | 16.4 µM (inactive) | 2.25 µM (inactive) | 12.8 µM (inactive) | 13.3 µM (inactive) | 4.43 µM (inactive) | 15 µM (inactive) | 6.25 µM (inactive) | > 10 µM (inactive) | 14.6 µM (inactive) | 16.8 µM (inactive) | 20.5 µM (inactive) | 10.7 µM (inactive) | 16.8 µM (inactive) | –
CN1C(=O)C(=O)N2c3ccc(Cl)cc3C3(c4ccccc4)N=CC12O3 (centres undefined) | 4.7 µM (inactive) | 4.02 µM (inactive) | 14.7 µM (inactive) | 3.24 | 2.25 µM (inactive) | 15 µM (inactive) | 3.45 µM (inactive) | 1.53 µM (inactive) | 3.21 µM (inactive) | 2.11 µM (inactive) | 3.13 µM (inactive) | 2.19 µM (inactive) | 7.53 µM (inactive) | 11.1 µM (inactive) | 3.27 µM (inactive) | 10.1 µM (inactive) | 3.79 µM (inactive) | 3.94 µM (inactive) | –
O=c1c(O)c(-c2ccccc2)n(O)c2ccc(Cl)cc12 | 30.6 µM (inactive) | 36.1 µM (inactive) | 17.7 µM (inactive) | 16 | 24.1 µM (inactive) | 27.9 µM (inactive) | 26.5 µM (inactive) | 11.4 µM (inactive) | 30.8 µM (inactive) | 36.3 µM (inactive) | 21.3 µM (inactive) | 23.4 µM (inactive) | 27.4 µM (inactive) | 29.4 µM (inactive) | 20 µM (inactive) | 30.8 µM (inactive) | 16.6 µM (inactive) | 24.5 µM (inactive) | –
CC(C(=O)n1nnc2ccccc21)N(c1ccccc1)c1ccccc1 (centres undefined) | > 100 µM (inactive) | > 100 µM (inactive) | > 100 µM (inactive) | > 100 | 45.1 µM (inactive) | > 100 µM (inactive) | > 100 µM (inactive) | 76.6 µM (inactive) | > 100 µM (inactive) | – | > 100 µM (inactive) | 52.7 µM (inactive) | > 100 µM (inactive) | > 100 µM (inactive) | > 100 µM (inactive) | > 100 µM (inactive) | > 100 µM (inactive) | > 100 µM (inactive) | –
Cc1nnc(N/N=C(/C(=O)C(C#N)c2ccccc2)C(C#N)c2ccccc2)n1N (centres undefined) | 22.3 µM (inactive) | 4.76 µM (inactive) | 4.85 µM (inactive) | 16.1 | 17.9 µM (inactive) | 50.7 µM (inactive) | 3.73 µM (inactive) | 1.54 µM (inactive) | 16.8 µM (inactive) | 24.4 µM (inactive) | 3.62 µM (inactive) | 19.6 µM (inactive) | 31 µM (inactive) | 3.75 µM (inactive) | > 48.6 µM (inactive) | > 61.4 µM (inactive) | 1.56 µM (inactive) | 29.8 µM (inactive) | –
Cc1cc(=O)oc2cc(OCCCOc3ccc4c(C)cc(=O)oc4c3)ccc12 | > 100 µM (inactive) | > 100 µM (inactive) | > 100 µM (inactive) | > 100 | > 100 µM (inactive) | 63.8 µM (inactive) | > 100 µM (inactive) | > 100 µM (inactive) | > 100 µM (inactive) | > 100 µM (inactive) | > 100 µM (inactive) | > 100 µM (inactive) | > 100 µM (inactive) | > 100 µM (inactive) | > 100 µM (inactive) | – | > 100 µM (inactive) | > 100 µM (inactive) | –
